Laboratory results reported in patent publication US4959361A, “Triazolo(4,3-A)(1,4)benzodiazepines and thieno (3,2-F)(1,2,4)triazolo(4,3-A)(1,4)diazepine compounds which have useful activity as platelet activating factor (PAF) antagonists” (Hoffmann-La Roche Inc., priority 1988, dated 1990).
Read-outs that look alike come from different tables or passages of the source.

How the values were obtained:
[1] = molecular target: T1, PAF-binding, dog platelets (Canis lupus familiaris, UniProt A0A8I3NSH0); experiment: PAF binding assay (radiolabelled H-PAF, washed dog platelets); settings: 10 minutes at room temperature, read-out: PAF-binding IC-50
T1 construct: dog platelets; from tissue; host or cells: washed platelets from citrated dog blood
T1 sequence (A0A8I3NSH0 1-343): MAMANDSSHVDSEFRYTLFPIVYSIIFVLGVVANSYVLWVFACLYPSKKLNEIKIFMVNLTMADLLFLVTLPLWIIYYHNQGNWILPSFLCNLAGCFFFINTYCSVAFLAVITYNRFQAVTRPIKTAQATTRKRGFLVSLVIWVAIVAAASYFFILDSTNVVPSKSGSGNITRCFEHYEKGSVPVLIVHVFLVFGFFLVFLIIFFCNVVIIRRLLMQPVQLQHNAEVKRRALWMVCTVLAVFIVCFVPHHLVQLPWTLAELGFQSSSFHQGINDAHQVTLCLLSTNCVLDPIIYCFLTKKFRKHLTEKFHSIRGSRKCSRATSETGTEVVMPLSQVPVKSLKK
Procedure: The binding assay was done in […] polyethylene microcentrifuge tubes (Beckman) containing 50 μl of an oil mixture of 2 parts Siliconol AR200 (Serva): 1 part Silicone Fluid (Arthur H. Thoma). Buffer, standards, or analogs (150 μl total volume) were added to the tubes. Radiolabelled H-PAF (50 μl) was then added to the tubes. The reaction was started by the addition of 50 μl of dog platelets (2×10^7 platelets). The tubes were capped, inverted several times to mix, and incubated for 10 minutes at room temperature. The platelets were separated from the incubation mixture by centrifuging 1 minute in a Beckman Microfuge B centrifuge. The tip of the microfuge tube was cut off, and the platelets were washed out of the tip with 200 μl of 50% methanol (Burdick and Jackson). Aquasol (NEN, 10 ml) was added and the radioactivity in the samples was determined using an LS 8100 Beckman liquid scintillation counter linked to a Techtran tape recorder Data was processed through an in-house computer system. Alternatively, radioactivity was determined using a Searle Mark III liquid scintillation counter linked to a Iso-Data microprocessor.
(b) preparation of platelets
Blood was collected from anesthesized or unanesthesized dogs into 50 ml plastic centrifuge tubes containing 3.8% sodium citrate as the anticoagulant (1 volume of citrate/9 volumes of blood). The red cells were removed by centrifugation for 15 minutes at 600 rpm (100-125 g) at room temperature. An aliquot of the supernatant platelet rich plasma (PRP) was saved for cell counting and the remainder was acidified to pH 6.5 with 0.15M citric acid. The platelet pellet was obtained after a 10 minute centrifugation at 2000 rpm (1000 g) at room temperature. Washed platelets were prepared by resuspending the platelet pellet once with pBS containing 1 mM EDTA, centrifuging as noted, and then resuspending the platelets in 0.1% BSA pBS. An aliquot of the washed platelets was counted. Platelets used for binding assays were diluted to 2×10^7 platelets/assay tube (4×10^8 platelets/ml). platelet countinq was done using a Royco Cell-Crit 921.

[2] = tested on: PAF Induced Bronchoconstriction; experiment: PAF induced bronchoconstriction assay, intravenous testing; type: in vivo, guinea pig; settings: for ED50: Cavia porcellus, iv, 1 min, i.v., 1 minute pretreatment, PAF 1 μg/kg i.v., read-out: Bronchoconstriction ID-50 i.v.; for % inhibition of bronchoconstriction: Table II (*), at 0. mg/kg i.v. (dose digit cut off)
Procedure: Male animals (Hartlet Strain, 400-500 g were anesthetized with urethane (2 g/kg, i.p.). Each animals' trachea was cannulated and the guinea pigs were respirated using a Harvard small animal rodent respirator (3.0 cc stroke volume, 40 breaths per min.). Tracheal pressure was recorded from a cannula inserted in the trachea and connected to a Statham pressure transducer.
The jugular vein was cannulated for administering compounds. Spontaneous breathing was arrested with succinylcholine (1.2 mg/kg, i.v.) administered 2 minutes prior to intravenous injection of platelet activating factor PAF).
For the intravenous testing, the guinea pig is given a 1-minute pretreatment with propranolol at a dose of 0.1 mg/kg intravenously. The test compound is administered with a 1 minute pretreatment prior to intravenous challenge with PAF. The animal is then challenged with a 1 μg/kg intravenous dose of PAF and the change in tracheal pressure is measured.
The change in tracheal pressure is determined by subtracting the steady state baseline achieved after administration of succinylcholine from the peak broncho. constriction seen after challenge with PAF. The mean is calculated for each test compound and compared to the mean of the control animals to give the percent inhibition of bronchoconstriction. The standard error is calculated as the standard error of the mean.

[3] = tested on: PAF Induced Bronchoconstriction; experiment: PAF induced bronchoconstriction assay, oral testing; type: in vivo, guinea pig; settings: Cavia porcellus, po, 2 hr; for ED50: p.o., read-out: Bronchoconstriction ID-50 p.o. 2 hr; for inhibition in vivo at 0.3 mg/kg: at a dose of 0.3 mg/kg p.o.; for inhibition in vivo at 3 mg/kg: Table II (*), 3 mg/kg p.o.
[4] = Table I, triazolothienodiazepines
[5] = Table II, triazolobenzodiazepines

SMILES | IC50 [1, 4] [nM] | ED50 ([2]; Table I) [mg/kg] | ED50 ([3]; Table I) [mg/kg] | IC50 [1, 5] [nM] | further results
Cc1nnc2n1-c1sc(C#CCn3c(=O)ccc4ccccc43)cc1C(c1ccccc1Cl)=NC2 | 2 | 0.006 | 0.016 | – | –
Cc1nnc2n1-c1sc(C#CCN3C(=O)CCc4ccccc43)cc1C(c1ccccc1Cl)=NC2 | 0.2 | 0.004 | 0.015 | – | –
Cc1nnc2n1-c1sc(C#CCN3Cc4cccc5cccc(c45)C3=O)cc1C(c1ccccc1Cl)=NC2 | 3.5 | 0.01 | 0.009 | – | –
Cc1nnc2n1-c1sc(C#CCn3c(=O)n(C)c4ccccc43)cc1C(c1ccccc1Cl)=NC2 | 0.3 | 0.004 | 0.043 | – | –
Cc1nnc2n1-c1sc(C#CCC34CCCc5cccc(c53)NC4=O)cc1C(c1ccccc1Cl)=NC2 (stereo not drawn) | 0.7 | 0.008 | – | – | inhibition in vivo at 0.3 mg/kg ([3]; Table I): 24%
Cc1nnc2n1-c1sc(C#CCN3C(=O)C4(C)CCCc5cccc3c54)cc1C(c1ccccc1Cl)=NC2 (stereo not drawn) | 12 | 0.013 | 0.03 | – | –
Cc1nnc2n1-c1sc(C#CCn3c4ccccc4c4ccccc43)cc1C(c1ccccc1Cl)=NC2 | 120 | 0.016 | 0.016 | – | –
Cc1nnc2n1-c1sc(C#CCn3c(=O)c4ccccc4c4ccccc4c3=O)cc1C(c1ccccc1Cl)=NC2 | 51 | 0.01 | 0.015 | – | –
Cc1nnc2n1-c1sc(C#CCn3c(=O)c4ccccc4c4ccccc43)cc1C(c1ccccc1Cl)=NC2 | 13 | 0.016 | 0.012 | – | –
Cc1nnc2n1-c1sc(C#CCn3c(=O)n(C)c(=O)c4ccccc43)cc1C(c1ccccc1Cl)=NC2 | 0.6 | 0.007 | 0.017 | – | –
Cc1nnc2n1-c1sc(C#CCN3C(=O)COc4ccc(Cl)cc43)cc1C(c1ccccc1Cl)=NC2 | < 1 | 0.004 | 0.049 | – | –
Cc1nnc2n1-c1sc(C#CCn3c(=O)n(-c4ccccc4)c4ccccc43)cc1C(c1ccccc1Cl)=NC2 | < 1 | 0.008 | 0.015 | – | –
Cc1nnc2n1-c1sc(C#Cc3ccccn3)cc1C(c1ccccc1Cl)=NC2 | 250 | 0.056 | – | – | inhibition in vivo at 0.3 mg/kg ([3]; Table I): 5%
Cc1nnc2n1-c1sc(C#CCn3ccc4ccccc4c3=O)cc1C(c1ccccc1Cl)=NC2 | 1 | 0.007 | 0.029 | – | –
Cc1nnc2n1-c1sc(C#CCN3C(=O)CCc4cc(Cl)cc(Cl)c43)cc1C(c1ccccc1Cl)=NC2 | < 1 | 0.006 | 0.021 | – | –
Cc1nnc2n1-c1sc(C#CCn3c4c(c5ccccc53)CCCC4)cc1C(c1ccccc1Cl)=NC2 | 7 | 0.005 | 0.006 | – | –
Cc1nnc2n1-c1ccc(C#CCN3C(=O)c4ccccc4C3=O)cc1C(c1ccccc1Cl)=NC2 | – | – | – | 20 | ED50 ([2]; Table II): 0.019 mg/kg; ED50 ([3]; Table II): 1.4 mg/kg
Cc1nnc2n1-c1ccc(C#CCN3C(=O)c4ccccc4C3=O)cc1C(c1ccccc1F)=NC2 | – | – | – | 10 | ED50 ([2]; Table II): 0.013 mg/kg; ED50 ([3]; Table II): 0.52 mg/kg
COC1c2ccccc2C(=O)N1CC#Cc1ccc2c(c1)C(c1ccccc1F)=NCc1nnc(C)n1-2 (stereo not drawn) | – | – | – | 100 | % inhibition of bronchoconstriction [2]: 99%; inhibition in vivo at 3 mg/kg [3]: 100%
Cc1nnc2n1-c1ccc(C#CCN3C(=O)c4cccc5cccc3c45)cc1C(c1ccccc1F)=NC2 | – | – | – | 20 | % inhibition of bronchoconstriction [2]: 99%; inhibition in vivo at 3 mg/kg [3]: 57%
Cc1nnc2n1-c1ccc(C#CCCc3ccccc3)cc1C(c1ccccc1F)=NC2 | – | – | – | < 1 | ED50 ([2]; Table II): 0.006 mg/kg; ED50 ([3]; Table II): > 0.3 mg/kg
Cc1nnc2n1-c1ccc(C#CCN3C(=O)CCc4ccccc43)cc1C(c1ccccc1F)=NC2 | – | – | – | 20 | ED50 ([2]; Table II): 0.015 mg/kg; ED50 ([3]; Table II): 0.44 mg/kg
CCc1nnc2n1-c1ccc(C#CCN3C(=O)c4ccccc4C3=O)cc1C(c1ccccc1F)=NC2 [2-[3-[1-Ethyl-6-(2-fluorophenyl)-4H-[1,2,4]triazolo[4,3-a][1, 4]benzodiazepin-8-yl]-2-propynyl]-1H-isoindole-1,3(2H)dione semihydrate] | – | – | – | 100 | ED50 ([2]; Table II): 0.054 mg/kg; ED50 ([3]; Table II): 1.5 mg/kg
